Converted amounts (≈) assume the structure as drawn. “And” between values parts separate entries of the source, which are not always exact repeats. Equal entries are not always repeated. Where two headings read alike, the source gives them in different places.
Experiments:
[1] = test system: promastigote stage of L. donovani; assay: Antileishmanial Alamar blue fluorometric assay; format: cell-based
Experimental: (§1) The compounds described herein were also evaluated for parasitic activity against Plasmodium falciparum and Leismania donovani. P. falciparum and L. donovani are the causative parasites of malaria and leishmaniasis, two human diseases which constitute a serious threat to public health in tropical and sub-tropical countries. Antimalarial activity was evaluated in vitro using chloroquine-sensitive (D6, Sierra Leone) and chloroquine-resistant (W2, Indochina) strains of P. falciparum. Antileishmanial activity was evaluated in vitro against the promastigote stage of L. donovani.
(§2) Plasmodium growth inhibition was determined by a parasite lactate dehydrogenase assay using Malstat reagent. Inhibition of viability of the promastigote stage of L. donovani was determined using standard Alamar blue assay, modified to a fluorometric assay.
(§3) Macrocyclic histone deacetylase inhibitors were evaluated for parasitic activity against Plasmodium falciparum and Leismania donovani. P. falciparum and L. donovani are the causative parasites of malaria and leishmaniasis, two human diseases which constitute a serious threat to public health in tropical and sub-tropical countries. Antimalarial activity was evaluated in vitro using chloroquine-sensitive (D6, Sierra Leone) and chloroquine-resistant (W2, Indochina) strains of P. falciparum. Antileishmanial activity was evaluated in vitro against the promastigote stage of L. donovani.
as §2

[2] = test system: Plasmodium falciparum (D6 clone), chloroquine-sensitive; assay: Plasmodium growth inhibition, parasite lactate dehydrogenase assay (Malstat); format: cell-based; settings: for IC50: Plasmodium falciparum; for Plasmodium falciparum (D6 clone) IC50: chloroquine-sensitive; for S.I. D6: selective toxicity index, Vero versus D6
Experimental: as §1, §2, §3, §2

[3] = test system: Plasmodium falciparum (W2 clone), chloroquine-resistant; assay: as above; format: cell-based; settings: for IC50: Plasmodium falciparum; for Plasmodium falciparum (W2 clone) IC50: chloroquine-resistant
Experimental: as §1, §2, §3, §2

[4] = test system: HeLa nuclear extract HDAC1/2; assay: Fluor de Lys HDAC inhibition, HeLa nuclear extract; format: biochemical, human; settings: Table 8; read-out: HDAC Inhibition IC50
Text: Fluor de Lys™ is a fluorescence based HDAC activity assay comprising a combination of fluorogenic Histone deAcetylase Lysyl substrate and a developer. The kit is a highly sensitive and convenient alternative to radiolabeled, acetylated histones or peptide/HPLC methods for the assay of histone deacetylases. This assay is based on the ability of HeLa nuclear extract, which is enriched in HDAC activity, to mediate the deacetylation of the acetylated lysine side chain of the Fluor de Lys substrate. The assay procedure requires two steps. First, incubation of the HeLa nuclear extract with the Fluor de Lys substrate results in substrate deacetylation and thus sensitizes it to the second step. In the second step, treatment of the deacetylated substrate with the Fluor de Lys developer produces a fluorophore. The substrate-developer reaction, under normal circumstances goes to completion in less than 1 min at 25° C. The kit used was the Fluorimetric Assay/Drug Discovery Kit—AK-500 Manual Fluorescent Assay System available from BIOMOL® International, Plymouth Meeting, Pa.
Each IC50 value was obtained by averaging three independent experiments.

[5] = target: HDAC1 (Homo sapiens (Human), UniProt Q13547); assay: SAMDI mass spectrometry HDAC inhibition assay; format: biochemical; settings: for HDAC1 inhibition, symbol: SAMDI; for HDAC1 % inhibition: at 10 μM, given if the IC50 was above 10 μM
Sequence of HDAC1 (Q13547 whole entry): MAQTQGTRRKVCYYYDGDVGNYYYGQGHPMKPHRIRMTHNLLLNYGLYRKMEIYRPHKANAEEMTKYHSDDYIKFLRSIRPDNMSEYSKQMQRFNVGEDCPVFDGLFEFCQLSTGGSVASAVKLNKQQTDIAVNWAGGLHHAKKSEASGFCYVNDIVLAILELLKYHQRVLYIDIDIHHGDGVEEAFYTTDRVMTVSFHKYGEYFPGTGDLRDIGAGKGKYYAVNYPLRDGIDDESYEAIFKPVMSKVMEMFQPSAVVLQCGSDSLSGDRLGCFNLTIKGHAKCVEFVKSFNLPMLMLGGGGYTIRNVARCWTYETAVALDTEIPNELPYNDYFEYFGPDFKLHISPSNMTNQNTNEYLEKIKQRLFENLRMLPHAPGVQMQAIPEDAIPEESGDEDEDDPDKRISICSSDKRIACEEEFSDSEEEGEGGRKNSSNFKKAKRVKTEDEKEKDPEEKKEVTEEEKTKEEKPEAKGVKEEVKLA
Experimental: (§4) There is precedence that fluorescently labeled substrates can perturb enzyme activity and the effect of inhibitors. […] Additionally, 3-hydroxypyridine-2-ones are highly colored solids and might lead to false positive signals. Mindful of these facts, a label-free SAMDI (self-assembled monolayers for MALDI) mass spectrometry assay was also used to assess HDAC inhibition.
(§5) The SAMDI technique, wherein self-assembled monolayers (SAM) of alkanethiolates on gold are analyzed by matrix assisted laser desorption/ionization (MALDI) mass spectrometry, has been widely used to characterize many biochemical activities, including the deacetylase enzyme family.

[6] = target: HDAC8 (Homo sapiens (Human), UniProt Q9BY41); assay: SAMDI mass spectrometry HDAC inhibition assay; format: biochemical
Sequence of HDAC8 (Q9BY41 whole entry): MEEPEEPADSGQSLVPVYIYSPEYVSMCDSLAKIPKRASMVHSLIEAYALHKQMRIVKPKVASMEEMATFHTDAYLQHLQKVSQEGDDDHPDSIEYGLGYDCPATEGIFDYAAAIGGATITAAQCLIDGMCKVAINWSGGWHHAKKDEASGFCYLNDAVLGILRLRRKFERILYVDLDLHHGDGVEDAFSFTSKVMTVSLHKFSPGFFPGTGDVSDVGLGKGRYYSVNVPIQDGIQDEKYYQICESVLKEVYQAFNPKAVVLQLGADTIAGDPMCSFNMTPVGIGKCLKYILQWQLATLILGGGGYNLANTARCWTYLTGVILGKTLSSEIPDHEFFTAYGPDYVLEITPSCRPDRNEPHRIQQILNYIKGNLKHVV
Experimental: as §4, §5

[7] = target: HDAC6 (Homo sapiens (Human), UniProt Q9UBN7); assay: SAMDI mass spectrometry HDAC inhibition assay; format: biochemical; settings: for inhibition at 10 µM: read-out: HDAC6 % inhibition
Sequence of HDAC6 (Q9UBN7 whole entry): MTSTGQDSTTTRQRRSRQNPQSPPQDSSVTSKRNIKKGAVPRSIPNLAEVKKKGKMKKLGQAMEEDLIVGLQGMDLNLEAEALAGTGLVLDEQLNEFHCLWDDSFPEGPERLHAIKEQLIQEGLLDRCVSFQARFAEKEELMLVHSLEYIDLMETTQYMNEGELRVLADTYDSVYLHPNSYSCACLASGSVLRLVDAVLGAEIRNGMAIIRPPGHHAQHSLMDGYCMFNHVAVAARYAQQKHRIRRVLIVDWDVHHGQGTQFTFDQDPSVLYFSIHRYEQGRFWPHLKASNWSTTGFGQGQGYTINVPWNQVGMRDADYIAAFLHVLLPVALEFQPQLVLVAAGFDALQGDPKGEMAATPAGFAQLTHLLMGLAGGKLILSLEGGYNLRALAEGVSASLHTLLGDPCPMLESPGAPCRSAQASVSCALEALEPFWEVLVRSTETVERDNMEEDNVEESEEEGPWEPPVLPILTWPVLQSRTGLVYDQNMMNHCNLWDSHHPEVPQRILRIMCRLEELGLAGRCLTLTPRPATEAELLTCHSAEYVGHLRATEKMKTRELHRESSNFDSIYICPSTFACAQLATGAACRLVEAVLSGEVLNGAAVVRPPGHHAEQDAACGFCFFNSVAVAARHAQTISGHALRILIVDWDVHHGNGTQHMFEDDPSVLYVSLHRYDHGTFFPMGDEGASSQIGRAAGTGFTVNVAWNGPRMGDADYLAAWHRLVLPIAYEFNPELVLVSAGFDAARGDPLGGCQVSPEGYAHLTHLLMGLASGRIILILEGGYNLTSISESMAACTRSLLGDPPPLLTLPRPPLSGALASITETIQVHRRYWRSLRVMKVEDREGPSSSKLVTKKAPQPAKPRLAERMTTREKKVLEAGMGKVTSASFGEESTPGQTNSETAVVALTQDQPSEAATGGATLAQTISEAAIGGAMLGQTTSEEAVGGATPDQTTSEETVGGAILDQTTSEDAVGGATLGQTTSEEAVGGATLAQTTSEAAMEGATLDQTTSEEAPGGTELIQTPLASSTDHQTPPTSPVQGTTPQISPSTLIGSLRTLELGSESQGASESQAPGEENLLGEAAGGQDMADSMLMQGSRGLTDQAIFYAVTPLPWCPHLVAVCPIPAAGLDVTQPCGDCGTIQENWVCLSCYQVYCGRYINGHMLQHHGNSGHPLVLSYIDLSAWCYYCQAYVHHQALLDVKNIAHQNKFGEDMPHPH
Experimental: as §4
The SAMDI technique, wherein self-assembled monolayers (SAM) of alkanethiolates on gold are analyzed by matrix assisted laser desorption/ionization (MALDI) mass spectrometry, has been widely used to characterize many biochemical activities, including the deacetylase enzyme family. The SAMDI assay was used to measure the inhibition constant (K1) of fragments against HDAC1, HDAC6 and HDAC8 using a previously identified preferred HDAC substrate.

[8] = test system: DU 145 (androgen independent prostate cancer); assay: Anti-cancer activity screen; format: cell-based
[9] = test system: LNCaP (androgen dependent prostate cancer); assay: Anti-cancer activity screen; format: cell-based
[10] = test system: Jurkat (T cell leukemia overexpressing HDAC8); assay: Anti-cancer activity screen; format: cell-based
[11] = D6, chloroquine-sensitive, read-out: Plasmodium falciparum (D6 clone) IC50
[12] = W2, chloroquine-resistant, read-out: Plasmodium falciparum (W2 clone) IC50
[13] = Table 14, read-out: HDAC 8 (nm)
[14] = Homo sapiens, DU-145, calculated IC50 above 20 μM (highest concentration tested) also reported as >20
[15] = calculated IC50 above 20 μM (highest concentration tested) also reported as >20
[16] = Homo sapiens, Jurkat, read-out: Jurkat (μm)
[17] = Table 14, read-out: HDAC 6 (nm)

SMILES: C[C@@H]1[C@H](O)[C@@H](C)/C=C/C=C/C=C/C=C/C=C/C=C/C=C/[C@H](O[C@@H]2O[C@H](C)[C@@H](O)[C@H](N)[C@@H]2O)C[C@@H]2O[C@](O)(C[C@@H](O)C[C@@H](O)[C@H](O)CC[C@@H](O)C[C@@H](O)CC(=O)O[C@H]1C)C[C@H](O)[C@H]2C(=O)O [Amphotericine B, Amphotericin B, reference compound]
- Antileshmanial activity IC90 ([1]; promastigotes): 0.32 µg/mL and 0.3 µg/mL

SMILES: C[C@@H]1CC[C@H]2[C@@H](C)C(=O)O[C@@H]3O[C@@]4(C)CC[C@@H]1[C@]32OO4 [Artemisinin, artemisinin, reference compound]
- IC50 [2, 11]: 0.004 µg/mL (≈ 0.0142 µM)
- Plasmodium falciparum (D6 clone) IC50 [2]: 0.006 µg/mL
- IC50 [3, 12]: 0.006 µg/mL (≈ 0.0213 µM)
- Plasmodium falciparum (W2 clone) IC50 [3]: 0.009 µg/mL

SMILES: CCN(CC)CCCC(C)Nc1ccnc2cc(Cl)ccc12 (centres unmarked) [Chloroquine, chloroquine, reference compound]
- IC50 ([2]; D6, read-out: Plasmodium falciparum (D6 clone) IC50 (μg/ml), chloroquine-sensitive): 0.017 µg/mL (≈ 0.0531 µM)
- Plasmodium falciparum (D6 clone) IC50 [2]: 0.011 µg/mL
- IC50 ([3]; W2, read-out: Plasmodium falciparum (W2 clone) IC50 (μg/ml), chloroquine-resistant): 0.125 µg/mL (≈ 0.391 µM)
- Plasmodium falciparum (W2 clone) IC50 [3]: 0.14 µg/mL

SMILES: C=C1C[C@H](CC)C(C)(C)[C@H](C)[C@@H](C)N(C)C[C@H](C)CC(C)(C)[C@H](C[C@@H]2C[C@H](C)C[C@H](N(C)Cc3ccc(C(C)C)cc3)[C@H]2C)[C@@H](C)[C@H](C)[C@H]1C [Compd 4]
- IC50 [4]: 0.0888 µM
- IC50 [2, 11]: 1.3 µg/mL (≈ 1.88 µM)
- S.I. D6 [2]: > 3.7
- IC50 [3, 12]: 1.7 µg/mL (≈ 2.46 µM)
- S.I. (W2) ([3]; selective toxicity index, Vero versus W2, value in brackets): > 2.8

SMILES: N#Cc1ccccc1-c1ccc(Cn2cccc(O)c2=S)cc1 [Compound 149c, 1-(2-Cyano-(1,1′-biphenylmethyl))-3-hydroxyoxypyridine-2-thione]
- HDAC1 inhibition, symbol [5]: NI (No significant Inhibition (below 20% Inhibition))
- IC50 ([6]; SAMDI, read-out: HDAC8 IC50): 1.91 ± 0.771 µM
- IC50 ([6]; SAMDI, read-out: HDAC8 activity (IC50)): ~2 µM
- IC50 [6, 13]: 1.91 ± 0.771 µM
- IC50 ([7]; SAMDI, read-out: HDAC6 IC50): 0.372 ± 0.035 µM
- IC50 [8, 14]: 30 ± 5.85 µM
- IC50 [8, 15]: > 20 µM
- IC50 ([9]; Homo sapiens, LNCaP): 14.7 ± 0.84 µM
- IC50 [10, 16]: 8.95 ± 0.69 µM

SMILES: Cc1ccccc1-c1ccc(Cn2cccc(O)c2=S)cc1 [Compound 149f, 1-(2-Methyl-(1,1′-biphenylmethyl))-3-hydroxyoxypyridine-2-thione]
- HDAC1 inhibition, symbol [5]: NI (No significant Inhibition (below 20% Inhibition))
- IC50 [7, 17]: 0.306 ± 0.069 µM
- IC50 [8, 14]: 13.6 ± 2.91 µM
- IC50 ([9]; Homo sapiens, LNCaP): 7.75 ± 0.73 µM

SMILES: CN(C)c1ccc(-c2ccc(Cn3cccc(O)c3=S)cc2)cc1 [Compound 149g, 1-(4-Dimethylamino-(1,1′-biphenylmethyl))-3-hydroxyoxypyridine-2-thione]
- HDAC1 inhibition, symbol [5]: NI (No significant Inhibition (below 20% Inhibition))
- IC50 [6, 13]: 2.86 ± 0.944 µM
- HDAC6 inhibition, symbol ([7]; SAMDI): NI (No significant Inhibition (below 20% Inhibition))
- IC50 [8, 14]: > 20 µM
- IC50 [8, 15]: 22.8 ± 3.8 µM
- IC50 ([9]; Homo sapiens, LNCaP): 16.2 ± 1.11 µM
- IC50 [10, 16]: 10.6 ± 0.97 µM

SMILES: Oc1cccn(Cc2cn(-c3ccccc3)nn2)c1=S [Compound 154a, 1-Phenyltriazolylmethyl-3-hydroxypyridine-2-thione]
- inhibition at 10 µM [7]: 41%
- IC50 [8, 14]: 24 ± 7.47 µM
- IC50 [8, 15]: > 20 µM
- IC50 ([9]; Homo sapiens, LNCaP): 13.1 ± 1.51 µM
- IC50 [10, 16]: 4.68 ± 0.34 µM

SMILES: Oc1cccn(CCCCCn2cc(-c3ccccc3)nn2)c1=S [Compound 162d, 1-Phenyltriazolylpentyl-3-hydroxypyridine-2-thione]
- HDAC1 inhibition, symbol [5]: NI (No significant Inhibition (below 20% Inhibition))
- HDAC1 % inhibition [5]: 30%
- HDAC8 activity difference between 162d and 162e ([6]; SAMDI): ~7 fold
- IC50 ([6]; SAMDI, read-out: HDAC8 IC50): 0.917 µM
- IC50 [6, 13]: 0.917 ± 0.139 µM
- IC50 ([7]; SAMDI, read-out: HDAC6 IC50): 0.911 µM
- IC50 [7, 17]: 0.911 ± 0.173 µM
- IC50 [8]: 9.33 ± 0.96 µM
- IC50 [9]: 5.43 ± 0.47 µM
- IC50 ([10]; read-out: Jurkat (μm)): 3.27 ± 0.6 µM

SMILES: Oc1cccn(CCCCCCCn2cc(-c3ccccc3)nn2)c1=S [Compound 162f, 1-Phenyltriazolylheptyl-3-hydroxypyridine-2-thione]
- HDAC1 inhibition, symbol [5]: NI (No significant Inhibition (below 20% Inhibition))
- HDAC1 % inhibition [5]: 35%
- IC50 ([6]; SAMDI, read-out: HDAC8 IC50): 0.232 ± 0.019 µM
- IC50 [6, 13]: 1.38 ± 0.205 µM
- IC50 ([7]; SAMDI, read-out: HDAC6 IC50): 0.955 ± 0.15 µM
- IC50 [7, 17]: 0.955 ± 0.15 µM
- IC50 [8]: 17.7 ± 3.28 µM
- IC50 [9]: 11 ± 1.92 µM
- IC50 ([10]; read-out: Jurkat (μm)): 9.04 ± 1.31 µM

SMILES: N#Cc1cccc(-c2cn(CCCCCn3cccc(O)c3=S)nn2)c1 [Compound 167e, 1-(3-Benzonitrile)triazolylpentyl-3-hydroxypyridine-2-thione]
- IC50 ([6]; SAMDI, read-out: HDAC8 IC50): 2.83 µM
- IC50 [6, 13]: 2.4 ± 0.263 µM
- IC50 ([7]; SAMDI, read-out: HDAC6 IC50): 0.356 µM
- IC50 [7, 17]: 0.637 µM and 0.356 µM
- IC50 [9]: 3.49 ± 0.34 µM
- IC50 ([9]; Homo sapiens, LNCaP): 4.95 ± 0.43 µM
- IC50 [10, 16]: 5.18 ± 1.18 µM
- IC50 ([10]; read-out: Jurkat (μm)): 3.44 ± 0.57 µM

SMILES: Oc1cccn(Cc2ccc(Cn3cc(-c4ccccc4)nn3)cc2)c1=S [Compound 168]
- HDAC1 inhibition, symbol [5]: NI (No significant Inhibition (below 20% Inhibition))
- IC50 [6, 13]: 5.47 ± 1.6 µM
- IC50 [7, 17]: 0.534 ± 0.185 µM
- IC50 [8, 14]: 16.1 ± 2.24 µM
- IC50 ([9]; Homo sapiens, LNCaP): 7.8 ± 0.55 µM
- IC50 ([10]; Homo sapiens, Jurkat; read-out: Jurkat (μm)): 6.55 ± 0.91 µM

SMILES: N=C(N)c1ccc(OCCCCCOc2ccc(C(=N)N)cc2)cc1 [Pentamidine, pentamidine, reference compound]
- IC50 ([1]; Leishmania donovani, promastigotes, read-out: Antileshmanial activity IC50): 0.9 µg/mL (≈ 2.64 µM)
- Antileshmanial activity IC50 ([1]; promastigotes): 1.4 µg/mL

SMILES: O=C(CCCCCCC(=O)Nc1ccccc1)NO [SAHA, suberoylanilide hydroxamic acid, reference compound]
- IC90 ([1]; Leishmania donovani, read-out: Antileshmanial activity IC90 (μg/ml)): 50 µg/mL (≈ 189 µM)
- S.I. D6 [2]: 4.8
- inhibition at 10 µM [7]: 95%

— patent US8871728B2, “Non-peptide macrocyclic histone deacetylese (HDAC) inhibitors and methods of making and using thereof” (Georgia Tech Research Corporation, priority 2007, dated 2014)
